Test results as given in PMC6890495 (Chemical research in toxicology, 2019).

What was measured:
[1] = molecular target: T1, recombinant human ALKBH2 protein (Homo sapiens, UniProt Q6NS38); assay: Fe; type: biochemical; conditions: for change of repair efficiency with increasing Fe(II) ion: rhein 50 μM
T1 sequence (Q6NS38 1-261): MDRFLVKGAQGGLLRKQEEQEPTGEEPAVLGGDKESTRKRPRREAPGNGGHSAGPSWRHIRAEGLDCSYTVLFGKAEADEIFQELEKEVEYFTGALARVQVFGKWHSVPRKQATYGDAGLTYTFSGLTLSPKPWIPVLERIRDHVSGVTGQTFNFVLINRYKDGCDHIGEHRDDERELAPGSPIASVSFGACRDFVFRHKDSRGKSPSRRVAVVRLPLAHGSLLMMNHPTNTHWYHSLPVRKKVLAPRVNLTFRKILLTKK

[2] = molecular target: T1, recombinant human ALKBH2 protein; assay: α-ketoglutarate competitor test: ALKBH2 repair with varying αKG and fixed Fe; type: biochemical; conditions: for change of repair efficiency with increasing αKG: Fe(II) 10 μM, rhein 50 μM, compound 7 2 μM

repair efficiency ([2]; 2 μM compound, αKG 50 to 800 μM, Fe(II) kept at 10 μM) | reactivity (repair) ([1]; 5 μM Fe(II) ion, αKG kept at 93 μM) [%] | repair efficiency ([1]; Fe(II) ion concentration increased up to 80 μM, αKG 93 μM, control ~95% repair) | Molecule | change of repair efficiency with increasing Fe(II) ion ([1]; Fe(II) 5 to 80 μM, αKG 93 μM) | repair ratio ([2]; 50 μM rhein, 50 μM αKG, Fe(II) fixed at 10 μM) [%] | change of repair efficiency with increasing αKG ([2]; αKG 50 to 800 μM) | repair efficiency ([1]; 50 μM rhein, Fe(II) 5 to 80 μM, αKG fixed at 93 μM)
– | – | – | O=C(O)c1cc(O)c(O)c(O)c1 [compound 2, gallic acid] | recovered in a concentration-dependent manner | – | – | –
– | – | – | O=C(O)c1cc(O)c2c(c1)C(=O)c1cccc(O)c1C2=O [rhein, Rhein, reference compound] | no significant change | 30 | recovered in a concentration-dependent manner | around 36%
~ 25% | 5 | up to 60% | tannic acid [compound 7] | restored in a concentration-dependent manner | – | did not vary significantly | –
– | – | – | O=C(OC[C@H]1O[C@@H](OC(=O)c2cc(O)c(O)c(O)c2)[C@H](OC(=O)c2cc(O)c(O)c(O)c2)[C@@H](OC(=O)c2cc(O)c(O)c(O)c2)[C@@H]1OC(=O)c1cc(O)c(O)c(O)c1)c1cc(O)c(O)c(O)c1 [compound 5, pentagalloyl glucose] | recovered in a concentration-dependent manner | – | – | –
